Legend:
[1] = molecular target: T1, human A3 AR (Homo sapiens, UniProt P0DMS8); experiment: Cyclic AMP accumulation assay
T1 sequence (P0DMS8 1-318): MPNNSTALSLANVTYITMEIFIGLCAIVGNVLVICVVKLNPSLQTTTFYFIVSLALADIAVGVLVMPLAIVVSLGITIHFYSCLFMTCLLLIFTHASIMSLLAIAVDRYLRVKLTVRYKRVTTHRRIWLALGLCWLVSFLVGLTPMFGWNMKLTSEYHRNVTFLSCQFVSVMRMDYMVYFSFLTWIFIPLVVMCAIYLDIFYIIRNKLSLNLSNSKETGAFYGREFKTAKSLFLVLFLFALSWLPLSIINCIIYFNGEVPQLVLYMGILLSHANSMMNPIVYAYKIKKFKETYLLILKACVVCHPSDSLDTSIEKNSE

[2] = molecular target: T1, human A3 AR; experiment: cell-based; settings: CHO, read-out: β-arrestin2 Emax
[3] = molecular target: T1, human A3 AR; experiment: cell-based; settings: CHO, read-out: Ca2+ Emax
[4] = molecular target: T1, human A3 AR; experiment: Membrane hyperpolarization; settings: for Emax: CHO, read-out: hyperpolarization Emax; for agonist activity in membrane hyperpolarization assay, in words: agonist alone
[5] = tested on: other subtypes of ARs; settings: concentrations up to 10 μM; cited from earlier work
[6] = molecular target: T1, human A3 AR; settings: LUF6000 10 μM
[7] = molecular target: T1, human A3 AR; settings: agonist Cl-IB-MECA; LUF6000 1, 3, and 10 μM
[8] = molecular target: T1, human A3 AR; settings: no agonist

## CNC(=O)[C@H]1O[C@@H](n2cnc3c(NCc4cccc(I)c4)nc(Cl)nc32)[C@H](O)[C@@H]1O [Cl-IB-MECA, 2-chloro-N^6-(3-iodobenzyl)adenosine-5′-N-methyluronamide]
[1]; CHO, read-out: cyclic AMP Emax
  Emax: 95.8 ± 4.8%
[2]
  Emax: 104 ± 5%
[3]
  Emax: 55.2 ± 3.4%
[4]
  Emax: 58.3 ± 3.6%

## Clc1ccc(Nc2nc3ccccc3c3[nH]c(C4CCC4)nc23)cc1Cl [LUF5999, N-(3,4-dichloro-phenyl)-2-cyclobutyl-1H-imidazo[4,5-c]quinolin-4-amine]
[1]; agonist Cl-IB-MECA
  effect on agonist action (efficacy and potency), in words: concentration-dependently increasing efficacy while decreasing potency

## Clc1ccc(Nc2nc3ccccc3c3[nH]c(C4CCCCC4)nc23)cc1Cl [LUF6000, N-(3,4-dichloro-phenyl)-2-cyclohexyl-1H-imidazo[4,5-c]quinolin-4-amine]
[1]; agonist Cl-IB-MECA
  concentration at which the efficacy-enhancing effect reaches a maximum: approx. 10 μM
  concentration from which the efficacy-enhancing effect starts: ≤ 1 µM
[1]; agonist Cl-IB-MECA, LUF6000 10 μM
  relative enhancement of the efficacy of Cl-IB-MECA: 50%
[1]; agonist Cl-IB-MECA, LUF6000 30 μM, data not shown
  further enhancement at higher concentration: did not cause further enhancement
[1]; agonist Cl-IB-MECA, modulator 10 μM or lower
  effect on agonist potency: did not significantly affect
[1]; agonist NECA, LUF6000 10 μM
  maximum enhancement of the efficacy of NECA: about 16%
[1]; agonist inosine, LUF6000 10 μM
  efficacy of inosine in presence of LUF6000, % of the level of NECA: 85%
[1]; nonnucleoside A3 AR antagonists MRS1220 and MRS1191, data not shown
  effect on the inability of MRS1220 and MRS1191 to inhibit forskolin-stimulated cyclic AMP levels: did not show any effect
[1]; nucleoside antagonist CCPA
  effect on the efficacy of CCPA: no effect
[1]; nucleoside antagonist MRS542
  effect on the efficacy of MRS542: no effect
[1]; partial agonist LUF5833, LUF6000 10 μM
  efficacy of LUF5833, % of the control level (agonist alone): over 200%
[1]; partial agonist MRS541, LUF6000 10 μM
  efficacy of MRS541, % of the control level (agonist alone): over 200%
[5]
  binding at the other subtypes of ARs: did not bind appreciably
[6]; agonist Cl-IB-MECA
  enhancement of the effect of Cl-IB-MECA: less than 10%
[6]; agonist NECA
  enhancement of the effect of NECA: less than 10%
[6]; partial agonist MRS542
  enhancement of the efficacy of MRS542: about 40%
[7]
  effect on the efficacy of Cl-IB-MECA in inducing ERK1/2 activation: had no effect
[8]
  effect of modulator alone on intracellular calcium mobilization: had no effect
[4]; agonist Cl-IB-MECA, LUF6000 30 μM
  further increase of the efficacy of Cl-IB-MECA at higher concentration: did not induce a further increase
[4]; agonist adenosine, data not shown
  effect on the efficacy of adenosine: did not show any effect
[4]; ligands inosine, MRS541, LUF5833
  enhancement of the residual activity of inosine, MRS541 and LUF5833: did not show any enhancement
[4]; no agonist
  effect of modulator alone on membrane hyperpolarization: did not show any effect

## Clc1ccc(Nc2nc3ccccc3c3[nH]cnc23)cc1Cl [LUF6001, N-(3,4-dichloro-phenyl)-1H-imidazo[4,5-c]quinolin-4-amine]
[1]; agonist Cl-IB-MECA
  effect on agonist action (efficacy and potency), in words: slightly decreased both the efficacy and potency

## OC[C@H]1O[C@@H](n2cnc3c(NCc4cccc(I)c4)ncnc32)[C@H](O)[C@@H]1O [MRS541, N^6-(3-iodobenzyl)adenosine]
[4]
  agonist activity in membrane hyperpolarization assay, in words: did not show any significant activation

## OC[C@H]1O[C@@H](n2cnc3c(NCc4cccc(I)c4)nc(Cl)nc32)[C@H](O)[C@@H]1O [MRS542, 2-chloro-N^6-(3-iodobenzyl)adenosine]
[2]
  Emax: 41.1 ± 3.2%
[3]
  Emax: 7.5 ± 2.5%
[4]
  Emax: -3.8 ± 5.6%
  agonist activity in membrane hyperpolarization assay, in words: did not show any agonist activity

## Nc1ncnc2c1ncn2[C@@H]1O[C@H](CO)[C@@H](O)[C@H]1O [adenosine]
[4]
  agonist activity in membrane hyperpolarization assay, in words: equally efficacious as NECA

## O=c1[nH]cnc2c1ncn2[C@@H]1O[C@H](CO)[C@@H](O)[C@H]1O [inosine]
[4]
  agonist activity in membrane hyperpolarization assay, in words: did not show any significant activation

Source: article PMC3152598 (Biochemical pharmacology, 2011)
